This experiment concerns mice with idiopathic pulmonary fibrosis. The experiment can be described thus: Single/combination administration of pirfenidone and Bifidobacterium longum RAPO in idiopathic pulmonary fibrosis mice (intratracheal BLM 2 U/mouse kg). Format: in vivo. The settings on record: for pulmonary fibrosis: FIG. 3. From the text:
To determine whether or not administration of a combination of pirfenidone (PFD), which is a conventional approved and used drug for pulmonary fibrosis, with Bifidobacterium longum RAPO, has a synergistic therapeutic effect due to Bifidobacterium longum RAPO, the inhibitory effects on pulmonary fibrosis after single and combination administration of PFD and Bifidobacterium longum were compared and evaluated in mice with idiopathic pulmonary fibrosis.
Idiopathic pulmonary fibrosis was induced by a single intratracheal injection of 50 μL (2 U/mouse kg) of BLM into 8-week-old male C57BL/6 mice to induce pulmonary fibrosis. Pirfenidone (PFD) and Bifidobacterium longum RAPO were administered orally 5 times a week for a total of 2 weeks, starting 7 days after inducing pulmonary fibrosis with BLM until the 21st day, the end date of the experiment. The administration groups and doses were as follows: 1) Normal control group: normal mice that were not administered any treatment; 2) disease control group: IPF mice administered vehicle containing neither PFD nor Bifidobacterium longum RAPO; 3) P100 group: IPF mice administered PFD 100 mg/mouse kg; 4) P200 group: IPF mice administered PFD 200 mg/mouse kg; 5) RAPO-A group: IPF mice administered Bifidobacterium longum RAPO 1×10^8 CFU/mouse; 6) RAPO-B group: IPF mice administered Bifidobacterium longum RAPO 5×10^8 CFU/mouse; 8) Comb A group: IPF mice administered a combination of PFD 100 mg/mouse kg and Bifidobacterium longum RAPO 1×10^8 CFU/mouse; 7) Comb B group: IPF mice administered a combination of 100 mg/mouse kg and Bifidobacterium longum RAPO 5×10^8 CFU/mouse. Efficacy evaluation was performed as follows. Lung tissues of mice with fibrosis induced on the 21st day after the start of BLM administration were sampled and fixed with formalin to form paraffin tissue blocks. The formed paraffin blocks were cut into 5 μm thick sections with a microtome and stained with Masson-Trichrome (MT), and the degree of pulmonary fibrosis was evaluated by analysis of an Ashcroft score, a collagen area, and an alveoli area.

The mark [1] stands for this setting: P100 group: PFD 100 mg/mouse kg alone, compared to vehicle group.

Take `Cc1ccc(=O)n(-c2ccccc2)c1` [PFD, pirfenidone]: where the note is “P100 group: PFD 100 mg/mouse kg alone, compared to P200 group”, the “pulmonary fibrosis amelioration relative to P200 group” value was “did not ameliorate pulmonary fibrosis comparable to the P200 group”. Under setting [1], the Ashcroft score entry was “improvement”, the collagen area result is reported as “improvement” and the pulmonary fibrosis result is “also alleviated pulmonary fibrosis”. The pulmonary fibrosis entry (P200 group: PFD 200 mg/mouse kg alone, oral, 5 times a week, 2 weeks, compared to vehicle group) is on record as “significantly alleviated pulmonary fibrosis”.

The record behind these values is patent US20250288627A1, “COMPOSITION FOR AMELIORATING, PREVENTING OR TREATING SYSTEMIC SCLEROSIS AND PULMONARY FIBROSIS CONTAINING BIFIDOBACTERIUM LONGUM RAPO” (INDUSTRY-ACADEMIC COOPERATION FOUNDATION GYEONGSANG …, priority 2024, published 2025).
